The values that follow come from paper PMC7281973, “Biological and Computational Studies for Dual Cholinesterases Inhibitory Effect of Zerumbone” (Nutrients, 2020).

SMILES strings stand for the structures. Read-outs that look alike come from different tables or passages of the source.

The target in data set [1] is T1, BChE (Equus caballus, UniProt P81908). As to conditions: ref Xavier et al. 2015; cited from earlier work.
The target in data set [2] is T1, BChE. The data set can be described thus: Anti-cholinesterase activity assay (modified Ellman method), BChE. It is filed as biochemical.
Experimental: (§2) AChE or BChE (0.8 U/mL) was added to a mixture which contained 0.1 M sodium phosphate buffer, 5 mM DTNB, and a tested sample, and then incubated at 37 °C for 15 min.
(§3) The cholinesterases inhibition kinetics of zerumbone were analyzed using Dixon and Lineweaver-Burk plots. The dissociation constant (Ki) was determined by interpretation of the Dixon plot, and Vmax and Km were calculated by Lineweaver–Burk plots, using the initial velocities obtained over a substrate concentration range [11].
For a further data set, the system named is Trypsin. The experiment in a line: Enzyme selectivity assay, trypsin. It is filed as biochemical. As to conditions: mean ± SD. The method, then:
(§1) To determine enzyme selectivity, trypsin, chymotrypsin, and elastase were analyzed using […], and N-succinyl-Ala-Ala-Ala-pNA as substrates, respectively. The reaction mixture was incubated for 20 min and the absorbance was measured at 410 nm.

Another data set deals with T2, Chymotrypsin (Bos taurus, UniProt P00766).
T2 construct: purchased Sigma-Aldrich
The experiment in a line: Enzyme selectivity assay, chymotrypsin. As to conditions: mean ± SD, read-out: Inhibitory activity (%) against Chymotrypsin. Type of data set: biochemical. The method, then:
as §1

For a further data set, the target named is T3, Elastase (Sus scrofa, UniProt P00772).
T3 construct: purchased Sigma-Aldrich
T3 sequence (P00772 27-266): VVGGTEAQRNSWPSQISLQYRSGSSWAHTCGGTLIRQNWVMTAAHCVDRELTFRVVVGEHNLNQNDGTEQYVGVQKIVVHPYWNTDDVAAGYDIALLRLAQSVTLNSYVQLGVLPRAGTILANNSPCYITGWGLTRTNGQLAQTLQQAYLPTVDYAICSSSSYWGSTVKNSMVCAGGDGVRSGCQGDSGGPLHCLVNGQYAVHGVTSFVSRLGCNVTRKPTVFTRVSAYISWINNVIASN
The experiment in a line: Enzyme selectivity assay, elastase. Type of data set: biochemical. As to conditions: mean ± SD, read-out: Inhibitory activity (%) against Elastase. The method, then:
as §1

A further data set concerns the target T4, BACE1 (Homo sapiens, UniProt P56817).
T4 construct: purchased Thermo Fisher Scientific, Inc; host or cells: baculovirus expression system
The experiment in a line: BACE1 FRET assay. As to conditions: mean ± SD, read-out: Inhibitory activity (%) against BACE1. It is filed as biochemical. The method, then:
To evaluate BACE1 inhibitory activity, a BACE1 FRET assay kit with a recombinant baculovirus-expressed BACE1 and a Rh-[…]-Quencher substrate was used. Briefly, a mixture of BACE1 (1.0 U/mL), the substrate, and tested sample at a different concentration, was incubated for 60 min at 25 °C in well plates. The increase in fluorescence intensity was measured by a fluorescence microplate reader at excitation and emission wavelengths of 545/590 nm (FLX800, Winooski, VT, USA). The inhibitory ratio (%) was calculated using the formula: Inhibition (%) = [1 − (S − S0)/(C − C0)] × 100, where C is the absorbance of control after 60 min of incubation, C0 is the absorbance of control at time 0, S was the absorbance of samples after 60 min of incubation, and S0 was the absorbance of the samples at time 0.

In a further data set the target is AChE (Electrophorus electricus, UniProt O42275). As to conditions: Dixon and Lineweaver-Burk plots.
Chain of AChE (O42275 24-633): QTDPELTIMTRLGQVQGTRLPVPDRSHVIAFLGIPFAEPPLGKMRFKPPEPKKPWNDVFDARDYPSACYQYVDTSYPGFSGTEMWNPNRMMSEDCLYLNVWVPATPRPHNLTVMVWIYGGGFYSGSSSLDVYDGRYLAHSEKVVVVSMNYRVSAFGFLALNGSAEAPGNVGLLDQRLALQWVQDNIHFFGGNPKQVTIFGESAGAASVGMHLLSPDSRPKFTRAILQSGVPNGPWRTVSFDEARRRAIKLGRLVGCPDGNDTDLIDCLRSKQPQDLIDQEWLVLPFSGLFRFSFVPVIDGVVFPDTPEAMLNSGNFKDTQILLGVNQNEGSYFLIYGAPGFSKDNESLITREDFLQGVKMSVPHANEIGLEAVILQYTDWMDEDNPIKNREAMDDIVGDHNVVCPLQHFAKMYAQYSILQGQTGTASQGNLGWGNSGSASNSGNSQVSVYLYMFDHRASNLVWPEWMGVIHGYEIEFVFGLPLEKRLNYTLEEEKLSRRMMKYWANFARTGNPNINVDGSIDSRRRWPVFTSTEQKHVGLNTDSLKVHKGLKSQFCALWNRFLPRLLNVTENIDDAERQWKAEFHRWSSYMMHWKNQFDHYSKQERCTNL
The subject of a further data set is Sprague–Dawley rats. As to conditions: 1 and 10 mg/kg; cited from earlier work.
The subject of the next data set is transgenic APP/PS1 mice. As to conditions: 25 mg/kg; cited from earlier work.
In a further data set the test system is mice. As to conditions: cited from earlier work.
Data set [3] relates to oxidative stress related inflammation and cancer cell proliferation. As to conditions: cited from earlier work.

T1 sequence (P81908 whole entry): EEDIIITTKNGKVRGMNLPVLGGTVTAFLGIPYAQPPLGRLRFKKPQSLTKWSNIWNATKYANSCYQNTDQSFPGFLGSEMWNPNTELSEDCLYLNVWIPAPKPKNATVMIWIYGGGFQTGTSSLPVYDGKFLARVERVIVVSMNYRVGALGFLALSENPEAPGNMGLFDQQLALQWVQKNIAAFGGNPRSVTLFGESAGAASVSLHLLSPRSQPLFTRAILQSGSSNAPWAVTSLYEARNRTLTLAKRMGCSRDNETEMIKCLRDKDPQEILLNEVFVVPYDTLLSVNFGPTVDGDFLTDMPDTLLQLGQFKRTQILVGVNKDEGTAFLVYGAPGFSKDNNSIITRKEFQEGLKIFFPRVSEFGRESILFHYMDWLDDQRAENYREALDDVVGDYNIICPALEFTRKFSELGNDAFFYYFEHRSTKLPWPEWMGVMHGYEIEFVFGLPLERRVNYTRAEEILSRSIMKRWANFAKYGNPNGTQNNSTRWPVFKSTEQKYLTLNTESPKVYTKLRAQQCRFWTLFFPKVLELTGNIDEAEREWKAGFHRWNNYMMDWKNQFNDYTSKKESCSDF
T4 sequence (P56817 46-501): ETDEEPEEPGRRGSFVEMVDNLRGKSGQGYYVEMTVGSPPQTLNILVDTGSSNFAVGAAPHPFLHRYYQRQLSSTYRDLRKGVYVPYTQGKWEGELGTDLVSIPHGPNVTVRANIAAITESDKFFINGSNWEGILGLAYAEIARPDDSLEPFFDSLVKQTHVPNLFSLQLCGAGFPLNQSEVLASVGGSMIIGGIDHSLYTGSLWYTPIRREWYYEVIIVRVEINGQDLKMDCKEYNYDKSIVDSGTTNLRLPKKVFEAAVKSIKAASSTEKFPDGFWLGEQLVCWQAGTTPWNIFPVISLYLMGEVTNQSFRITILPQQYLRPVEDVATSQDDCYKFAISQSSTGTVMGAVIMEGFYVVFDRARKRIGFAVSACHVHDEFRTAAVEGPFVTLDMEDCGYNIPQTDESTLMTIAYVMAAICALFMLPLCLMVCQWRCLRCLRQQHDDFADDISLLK
Experimental for AChE: as §2, §3

In the case of `COc1ccc2c3c1O[C@H]1C[C@@H](O)C=C[C@@]31CCN(C)C2` [Galantamine], the “BChE Inhibition Type” value on BChE [1] is “Competitive ^5”.

With `C/C1=C\CC(C)(C)/C=C/C(=O)/C(C)=C/CC1` [Zerumbone], the “BChE Inhibition Type” value at BChE [2] (Dixon and Lineweaver-Burk plots) was “Competitive”. Moreover, the “Fold more potent BChE suppression in comparison to galantamine” value on BChE [2] (versus positive control galantamine) is “approximately 3 fold”. Besides, the “Inhibitory activity (%) against Trypsin” value in the data set with Trypsin (50 µM) worked out at 5.00 ± 1.94%; in the data set on Trypsin (100 µM) it was 3.75 ± 2.03%. The results for the inhibition at 50 µM at Chymotrypsin (50 µM), on Elastase (50 µM) and on BACE1 (50 µM) were 3.45 ± 0.3%, 3.46 ± 1.85% and 13.3 ± 1.2%, respectively. The figures for the inhibition at 100 µM on Chymotrypsin (100 µM), on Elastase (100 µM) and on BACE1 (100 µM) were 2.71 ± 0.45%, 3.57 ± 0.94% and 16.1 ± 1.36%, respectively. Also, the “AChE Inhibition Type” value at AChE is given as “Non-competitive”. The “Effect on cognitive impairments and memory deficits related to scopolamine” value in the data set with Sprague–Dawley rats was “attenuated cognitive impairments and memory deficits”. The “Effect on behavioral impairments and Aβ deposition” value with transgenic APP/PS1 mice was “alleviated behavioral impairments and Aβ deposition”. Also, the “Genotoxicity, organ weight, clinical chemistry, hematology, histopathology” value in the data set on mice (mouse, in vivo, ip) is given as “did not cause any genotoxicity”. Also, the “Acute toxicity in vivo” value in the data set on mice (previous in vivo studies) is recorded as “did not produce significant acute toxicity”.

As for `C/C1=C\CC/C(C)=C/CC(C)(C)/C=C/C1` [α-Humulene], in data set [3], the “Activity in oxidative stress related inflammation and cancer cell proliferation” value was “virtually inactive”.
